The series has as its target Pseudomonas aeruginosa Elastase (LasB) (Pseudomonas aeruginosa, UniProt P14756). To be noted: fluorescamine assay; 125 μL 1 mM peptide + 125 μL buffer with 15 μg LasB; 25 mM Na2B4O7 pH 8.0, 10 mM CaCl2; 37 °C, 4 h; fluorescence ex 355/em 460 nm; normalised to P5 = 100%; n=3.

Structures are written as SMILES. Peptide text beside a SMILES is read from it.

Chain of Pseudomonas aeruginosa Elastase (LasB) (P14756 198-498): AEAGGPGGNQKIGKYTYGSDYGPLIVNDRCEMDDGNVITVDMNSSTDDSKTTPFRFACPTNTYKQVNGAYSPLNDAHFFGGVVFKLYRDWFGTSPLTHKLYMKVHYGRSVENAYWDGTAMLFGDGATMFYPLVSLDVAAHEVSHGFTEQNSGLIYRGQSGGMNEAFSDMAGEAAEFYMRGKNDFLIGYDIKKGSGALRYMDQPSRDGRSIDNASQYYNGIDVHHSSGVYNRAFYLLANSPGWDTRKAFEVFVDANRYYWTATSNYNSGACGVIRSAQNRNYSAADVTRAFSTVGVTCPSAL
Procedure: P5’s sequence should be formed following LasB‐mediated hydrolysis of the −GLAE− sequence, present in all the peptides reported.
One‐way ANOVA, followed by Tukey's test (CI=95%,) was used to test for significance. Statistical significance was determined ‘n/s’=not significant, *** p<0.001.
Stock solutions of peptide (1 mM) or succinyl casein (0.5 mg/mL) were prepared in 25 mM Na2B4O7 buffer at pH 8.0 with 10 mM CaCl2 and 10% v/v DMSO. 125 μL of these substrate solutions were added to a 96‐well black‐walled microplate and mixed with 125 μL of the same buffer without DMSO, containing 15 μg of enzyme (LasB or HLE). Solutions of enzymes and substrates alone were prepared as controls. Every sample was prepared in triplicate. The microplate was incubated at 37 °C for 4 hours under orbital shaking. After 4 hours, 50 μL of 0.1 M EDTA in water at pH 8.0 were added to each well to quench all enzymatic activity. Then, each sample was mixed in a 1 : 1 volume ratio with a 1 mM solution of fluorescamine19 in methanol. […] After this time, fluorescence was measured exciting at 355 nm and reading the emission at 460±10 nm. […]
fluorescence is related to the elastase-mediated hydrolysis of the peptides. […]
of the elastases and the fluorescence observed is represented by black bars . […]
peptides,[4] was incubated in the absence of elastase and the fluorescence obtained was associated

`CC(=O)N[C@@H](CS)C(=O)N[C@@H](CCC(=O)O)C(=O)N[C@@H](CCC(=O)O)C(=O)NCC(=O)N[C@@H](CC(C)C)C(=O)N[C@@H](C)C(=O)N[C@@H](CCC(=O)O)C(=O)N[C@@H](CCC(=O)O)C(=O)N[C@@H](CS)C(=O)O` [P2SH] (Ac-CEEGLAEEC-OH): the “susceptibility to LasB hydrolysis (relative amine content)” value is recorded as “least active”.
The result for `CC(=O)N[C@@H](CS)C(=O)N[C@@H](CCC(=O)O)C(=O)N[C@@H](CCC(=O)O)C(=O)N[C@@H](CCC(=O)O)C(=O)NCC(=O)N[C@@H](CC(C)C)C(=O)N[C@@H](C)C(=O)N[C@@H](CCC(=O)O)C(=O)N[C@@H](CCC(=O)O)C(=O)N[C@@H](CCC(=O)O)C(=O)N[C@@H](CS)C(=O)O` [P3SH] (Ac-CEEEGLAEEEC-OH) reads “highest susceptibility”.

The record behind these values is paper PMC6146907, “Structural Determinants of the Stability of Enzyme‐Responsive Polyion Complex Nanoparticles Targeting Pseudomonas aeruginosa’s Elastase” (Chemnanomat, 2018).
